What was measured:
pupil = assay: Pupil dilation measured with Neuroptics pupillometer after α-2 agonist pre-treatment and/or phenylephrine; type: in vivo, human
Experimental: Dilation medication used was Phenylephrine hydrochloride 10% (Akorn, Inc). Pupillometer used was a Neuroptics DP-2000 Binocular Pupillometer).
Dilation using phenylephrine hydrochloride 10% was conducted in both eyes of the test subject to use as a control against the other compounds being tested.
After this, dilation using phenylephrine hydrochloride 2.5% or phenylephrine hydrochloride 10% was conducted to investigate the effects of the compound on pupil dilation.
Apracionidine 0.5% was administered in the right eye of the test subject three (3) times a day for 4 days. After this, dilation using phenylephrine hydrochloride 10% was conducted to investigate the effects of the compound on pupil dilation.
After this, dilation using phenylephrine hydrochloride 10% was conducted to investigate the effects of the compound on pupil dilation.
A washout period of multiple months was undertaken in between each experiment.
Pupil measurements were obtained using a Neuroptics pupillometer. Parameters were as follows: Scotopic conditions for 1 second, followed by photopic conditions for 4 seconds (1258.925 lux), followed by scotopic conditions for 10 seconds. This allowed for investigation of scotopic pupil size, photopic pupil size, and scotopic pupil size recovery after the light stimulus concluded.
The pupils of the subject's pretreated right eye and untreated control left eye were then measured under both scotopic and photopic conditions for baseline measurements (FIG. 6A). Photopic conditions consisted of a 4 second window where a light was shining in both eyes simultaneously. […]
The experiment was repeated at a higher dosage wherein the subject was administered a second ophthalmic formulation containing 10% phenylephrine to both eyes. 30 minutes after instillation of 10% phenylephrine, the pupils of the subject were then measured under both scotopic and photopic conditions (FIG. 6C). […] Because the area of a circle is dependent on the radius squared (area of a circle=πr^2), the increase in area that is created from a increasing the pupil dilation size is not linear.
The results were then compared.

α receptors (α2:α1) = details: affinity ratio; cited from earlier work
iris = details: men taking tamsulosin, 10 retrospective and prospective studies; cited from earlier work
[1] = after pre-treatment of right eye only, 3 times a day for 4 days, before phenylephrine
[2] = after pre-treatment of right eye only, 3 times a day for 4 days, before phenylephrine, left eye not treated
[3] = dilation pre and post treatment with α 2 agonist: treated eye vs control measurements of same eye
[4] = non-treated eye dilation compared to treated eye dilation
[5] = photopic conditions (1258.925 lux) after dilation with phenylephrine 10%
[6] = photopic conditions (1258.925 lux) after dilation with phenylephrine 10%, eye without pre-treatment
[7] = right eye pre-treated 3 times a day for 4 days, then phenylephrine 10% both eyes
[8] = right eye pre-treated 3 times a day for 4 days, then phenylephrine 10% both eyes, left eye not pre-treated

Cc1cccc([C@H](C)c2cnc[nH]2)c1C [Dexmedetomidine, dexmedetomidine]
increase of surgical work area compared to the pre-treatment control dilation amount in the same eye (pupil; after dilation with phenylephrine hydrochloride 10%): +220%
CH LStim Ave (pupil; [1]): 64%
CH RPupil Ave (pupil; [1]): 64%
CH RStim Ave (pupil; [1]): 64%
CH Right (pupil; [1]): 64%
CLAT LStim Ave (pupil; [1]): 0.36 s
CLAT RPupil Ave (pupil; [1]): 0.38 s
CLAT RStim Ave (pupil; [1]): 0.36 s
CLAT Right (pupil; [1]): 0.38 s
DELTA LStim Ave (pupil; [1]): 4.01 mm
DELTA RPupil Ave (pupil; [1]): 4.19 mm
DELTA RStim Ave (pupil; [1]): 4.01 mm
DV LStim Ave (pupil; [1]): 0.95 mm/s
DV RPupil Ave (pupil; [1]): 0.96 mm/s
DV RStim Ave (pupil; [1]): 0.95 mm/s
DV Right (pupil; [1]): 0.96 mm/s
MCV LStim Ave (pupil; [1]): 5.42 mm/s
MCV RPupil Ave (pupil; [1]): 5.84 mm/s
MCV RStim Ave (pupil; [1]): 5.42 mm/s
Max LStim Ave (pupil; [1]): 6.30 mm
Max RStim Ave (pupil; [1]): 6.30 mm
Max Right (pupil; [1]): 6.57 mm
Min LStim Ave (pupil; [1]): 2.29 mm
Min RPupil Ave (pupil; [1]): 2.38 mm
Min RStim Ave (pupil; [1]): 2.29 mm
Min Right (pupil; [1]): 2.38 mm
CH LPupil Ave (pupil; [2]): 64%
CH Left (pupil; [2]): 64%
CLAT LPupil Ave (pupil; [2]): 0.34 s
CLAT Left (pupil; [2]): 0.34 s
DELTA Left (pupil; [2]): 3.83 mm
DV Left (pupil; [2]): 0.94 mm/s
MCV Left (pupil; [2]): 4.99 mm/s
Max Left (pupil; [2]): 6.03 mm
Min Left (pupil; [2]): 2.20 mm
Pupil size change (%) (pupil; [3]): +78.83%
Surgical work area change (%) (pupil; [3]): +219.8%
Pupil size change (%) (pupil; [4]): +74.46%
Surgical work area (%) (pupil; [4]): +204.4%
Pupil size, Treated eye (pupil; [5]): 6.42 mm
Surgical Work area, Treated eye (pupil; [5]): 32.35 mm^2
Pupil size, Non-treated eye (pupil; [6]): 3.68 mm
Surgical Work area, Non-treated eye (pupil; [6]): 10.63 mm^2
CH LStim Ave (pupil; [7]): 46%
CH RPupil Ave (pupil; [7]): 34%
CH RStim Ave (pupil; [7]): 46%
CH Right (pupil; [7]): 34%
CLAT LStim Ave (pupil; [7]): 0.20 s
CLAT RPupil Ave (pupil; [7]): 0.16 s
CLAT RStim Ave (pupil; [7]): 0.20 s
CLAT Right (pupil; [7]): 0.16 s
DELTA LStim Ave (pupil; [7]): 4.22 mm
DELTA RPupil Ave (pupil; [7]): 3.31 mm
DELTA RStim Ave (pupil; [7]): 4.22 mm
DV LStim Ave (pupil; [7]): 0.94 mm/s
DV RPupil Ave (pupil; [7]): 0.80 mm/s
DV RStim Ave (pupil; [7]): 0.94 mm/s
DV Right (pupil; [7]): 0.80 mm/s
MCV LStim Ave (pupil; [7]): 3.24 mm/s
MCV RPupil Ave (pupil; [7]): 2.49 mm/s
MCV RStim Ave (pupil; [7]): 3.24 mm/s
Max LStim Ave (pupil; [7]): 9.27 mm
Max RStim Ave (pupil; [7]): 9.27 mm
Max Right (pupil; [7]): 9.73 mm
Min LStim Ave (pupil; [7]): 5.05 mm
Min RPupil Ave (pupil; [7]): 6.42 mm
Min RStim Ave (pupil; [7]): 5.05 mm
Min Right (pupil; [7]): 6.42 mm
CH LPupil Ave (pupil; [8]): 58%
CH Left (pupil; [8]): 58%
CLAT LPupil Ave (pupil; [8]): 0.24 s
CLAT Left (pupil; [8]): 0.24 s
DELTA Left (pupil; [8]): 5.13 mm
DV Left (pupil; [8]): 1.08 mm/s
MCV Left (pupil; [8]): 4.00 mm/s
Max Left (pupil; [8]): 8.81 mm
Min Left (pupil; [8]): 3.68 mm
α2:α1 affinity (α receptors (α2:α1)): 1620

CCOc1ccccc1OCCN[C@H](C)Cc1ccc(OC)c(S(N)(=O)=O)c1 [tamsulosin]
risk of IFIS (iris): up to 90%

— patent US11738022B2, “Methods for inducing pupil dilation” (THE REGENTS OF THE UNIVERSITY OF COLORADO, A BODY CORPORATE, priority 2017, dated 2023)
